For experiment [1], the system named is cognate receptor of >100 distinct ligands. Kind of experiment: SPA selectivity, >100 distinct ligands to their cognate receptor. Format: binding. To be noted: ligands with related structural homology or entirely different chemical composition.
Experiment [2] has as its target T1, FGFR2^∂123 (Homo sapiens, UniProt P21802).
T1 construct: we purified the entire extracellular domain of FGFR2 without Fc-tag (FGFR2^∂123); made in house
Kind of experiment: anisotropy measurement, FGF1-lumio binding to FGFR2 ECD without Fc-tag. Particulars: >1,000 fold molar excess of SSR; FGF1-lumio 1 μM. On the procedure:
To assess whether SSR inhibits the binding of FGF1 to its binding pocket, we purified the entire extracellular domain of FGFR2 without Fc-tag (FGFR2^∂123) and measured the tumbling speed (as a parameter of anisotropy) of a fluorescent lumio-tagged FGF1 (FGF1-lumio; constant concentration of 1 μM) in the presence of varying concentrations of FGFR2^∂123 without (blue) or with (red) SSR (1 mM). When FGFR2^∂123 was added to FGF1-lumio, the tumbling speed of the ligand/receptor complex was slower than of FGF-lumio alone, because of its larger size.
One hallmark of allosteric interactions is the phenomenon of ‘probe-dependence’ i.e., variations in the magnitude and direction of an allosteric interaction depending on the nature of the orthosteric ligand-receptor complex with which the modulator is interacting (May et al., 2007). To determine whether the effects of SSR on ^125I-FGF2 binding in the SPA were dependent on the configuration of the engineered FGFR/Fc fusion protein plated on an artificial substrate, we next studied whether SSR inhibited the binding of a fluorescent lumio-tagged FGF1 (FGF1-lumio) to a purified ECD of FGFR2 without the Fc-tag (FGFR2^∂123), by measuring the tumbling speed as a parameter of anisotropy. When FGFR2^∂123 was added to FGF1-lumio, the tumbling speed of the ligand/receptor complex was slower than of FGF-lumio alone because of its larger size. […]

Experiment [3] deals with B9-FGFR3WT cell line. Kind of experiment: B9 myeloma cell proliferation, FGFR3WT. It is filed as cell-based. To be noted: 0.1 μM SSR; FGF1 25 ng/ml. The protocol: Cell proliferation was analysed on exponentially growing cells that were starved for 16 hours in IMDM (Invitrogen, 31980048), 0.2% FBS, 2 mM glutamine containing medium and seeded at 4,000 cells/well in 96-well microplates. After exposure to mitogens and/or SSR for 72 hours, cell proliferation was assessed with the use of the CellTiter 96 AQueous One Solution Cell Proliferation Assay (Promega, Madison, Wis., USA) according to manufacturer's instructions.
For studying SSR effect on FGFR3, the proliferation of B9-myeloma cells, expressing either FGFR3WT or FGFR3TD (a constitutively activated FGFR3 variant induced by the K650E mutation, even in the absence of any ligand; Truedel et al; blood 2006), was assayed by stimulation with FGF1 (25 ng/ml).

For experiment [4], the target named is T2, FGFR3^∂23 (Homo sapiens, UniProt P22607).
T2 construct: two ECD fragments, FGFR2^∂23 (consisting of domain D2 and 3) and FGFR3^∂23; made in house
Kind of experiment: isothermal titration calorimetry (ITC), FGFR3. Format: binding. A general note: ITC needs no label: the signal is the heat of the interaction.

Experiment [5] addresses T3, FGF1 (Homo sapiens, UniProt P05230).
T3 construct: FGF1 (amino acids: 16-155); made in house
Kind of experiment: ITC or STD-NMR, FGF1. It is filed as binding. On the procedure: The extracellular domain (ECD; amino acids: 39-358) of the human FGFR1 gene (P11362) was PCR amplified and cloned into E. coli vector pETTEV (with a N-terminal His-tag followed by a TEV protease cleavage site), using NdeI and BamHI restriction sites. For protein production, the resulting plasmid (pET FGFR1 D1D2D3) was transformed into E. coli BL21(DE3) (Novagene). Cells were grown at 37° C. until the OD600 reached 0.6 and recombinant protein production was induced by adding 1 mM IPTG (isopropyl-b-D-thiogalactopyranoside). After 4 hours induction, cells were harvested and stored at −80° C. until usage. The cell pellet (1 L culture) was thawed and resuspended in 50 ml buffer 1 (20 mM Tris/HCl, pH 7.5, 200 mM NaCl) containing lysozyme (2 mg), and 40 U benzonase (Merck). […] Complex formation was analyzed by size exclusion chromatography and subsequent analysis on SDS-PAGE.
All STD- and 1D-NMR experiments were carried out on a BRUKER three-channel DRX600 and on a BRUKER four-channel DRX800 spectrometer at the standard temperature of 298 K and were referenced to the internal standard 3-Trimethyl-2,2,3,3-tetradeuteropropionate-sodium salt (TSP). […] For protein ligand 1D STD NMR measurements spectra were recorded with 1 mM ligand SSR128129E (100 mM DMSO stock solution) and […] protein with weak 2s RF irradiation on separated protein methyl resonances. […]

Molecules are shown by their SMILES.

T2 sequence (P22607 145-365): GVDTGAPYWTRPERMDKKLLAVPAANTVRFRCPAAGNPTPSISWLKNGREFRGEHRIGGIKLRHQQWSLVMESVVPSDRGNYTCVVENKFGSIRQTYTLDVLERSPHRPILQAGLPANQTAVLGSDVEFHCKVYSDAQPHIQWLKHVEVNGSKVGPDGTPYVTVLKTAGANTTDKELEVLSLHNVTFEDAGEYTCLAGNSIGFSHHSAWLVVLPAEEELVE
T3 sequence (P05230 16-155, species assumed): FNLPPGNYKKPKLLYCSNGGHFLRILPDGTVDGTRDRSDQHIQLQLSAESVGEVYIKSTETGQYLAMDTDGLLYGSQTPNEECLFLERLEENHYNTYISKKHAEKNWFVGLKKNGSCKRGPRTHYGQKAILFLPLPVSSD
T1 sequence (P21802 22-377 limits assumed): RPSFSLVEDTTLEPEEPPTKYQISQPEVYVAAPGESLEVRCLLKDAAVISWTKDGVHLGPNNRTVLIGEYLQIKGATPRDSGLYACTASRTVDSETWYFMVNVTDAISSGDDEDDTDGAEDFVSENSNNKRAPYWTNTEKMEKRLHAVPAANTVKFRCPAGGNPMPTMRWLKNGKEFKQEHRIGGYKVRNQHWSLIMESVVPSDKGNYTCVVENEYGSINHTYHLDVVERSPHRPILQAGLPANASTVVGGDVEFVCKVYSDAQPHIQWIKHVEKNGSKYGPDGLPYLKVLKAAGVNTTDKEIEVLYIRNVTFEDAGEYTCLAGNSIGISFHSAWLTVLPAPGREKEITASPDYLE

`COc1c(C)c(C(=O)c2ccc(N)c(C(=O)[O-])c2)n2ccccc12.[Na+]` [SSR]: the “binding of >100 distinct ligands to their cognate receptor” value in experiment [1] was “not inhibiting”. Moreover, the “tumbling speed (anisotropy) of FGF1-lumio/FGFR2^∂123 complex” value in experiment [2] was “failed to alter the tumbling speed of the complex”. The “FGF1-induced proliferation of B9-FGFR3WT cells” value in experiment [3] is on record as “inhibited”. In experiment [4], the “binding to FGFR3” value is “bound”. Further, in experiment [5], the “binding to FGF1” value is reported as “failed to bind”.

The values above are taken from patent US9234025B2, “Extracellular allosteric inhibitor binding domain from a tyrosine kinase receptor” (SANOFI, priority 2009, dated 2016).
